According to PubChem BioAssay (NCI):
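These data come from cells grown in 96-well plates and exposed to compound for 48 hours at five concentrations. The concentration for 50% growth inhibition is given as GI50. TGI: concentration producing complete growth inhibition.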

Tests used:
Assay in all cases: NCI anticancer screen, dose series, 48 h
SR leukemia = system: SR leukemia
SNB-78 CNS = system: SNB-78 CNS
OVCAR-8 ovarian = system: OVCAR-8 ovarian
RXF 393 renal = system: RXF 393 renal
786-0 renal = system: 786-0 renal
DLD-1 colon = system: DLD-1 colon
DMS 273 small cell lung = system: DMS 273 small cell lung
MALME-3M melanoma = system: MALME-3M melanoma
KM20L2 colon = system: KM20L2 colon
COLO 205 colon = system: COLO 205 colon
M19-MEL melanoma = system: M19-MEL melanoma
MDA-MB-231 breast = system: MDA-MB-231 breast
DU-145 prostate = system: DU-145 prostate

SMILES	TGI (SR leukemia)	TGI (SNB-78 CNS)	TGI (OVCAR-8 ovarian)	TGI (RXF 393 renal)	TGI (786-0 renal)	TGI (DLD-1 colon)	TGI (DMS 273 small cell lung)	TGI (MALME-3M melanoma)	TGI (KM20L2 colon)	TGI (COLO 205 colon)	TGI (M19-MEL melanoma)	TGI (MDA-MB-231 breast)	TGI (DU-145 prostate)	GI50 (COLO 205 colon)
CCN(CC)C(=O)c1c(N2CCOCC2)cc(N(CC)CC)oc1=O	> 100 µM	> 100 µM	> 100 µM	> 100 µM	> 100 µM	> 100 µM	> 100 µM	> 100 µM	> 100 µM	> 100 µM	> 100 µM	–	–	–
Cc1cc(=O)c2c(O)c3c(O)cc(O)c4c5c(O)cc(O)c6c(O)c7c(=O)cc(C)c8c1c2c(c34)c(c65)c78	> 100 µM	> 77.3 µM	> 100 µM	88.8 µM	> 100 µM	47.5 µM	> 100 µM	> 100 µM	49.2 µM	> 100 µM	> 63.6 µM	> 100 µM	> 100 µM	> 100 µM
CC(=O)OCC1OC(OCC2OC(N3C(=S)N[C@H]([C@@H](O)[C@H](O)[C@H](O)CO)[C@H]3O)C(OC(C)=O)C(OC(C)=O)C2OC(C)=O)C(OC(C)=O)C(OC(C)=O)C1OC(C)=O (some centres undefined)	> 100 µM	–	> 100 µM	> 100 µM	> 100 µM	–	–	> 100 µM	–	> 100 µM	–	> 100 µM	> 100 µM	–
C=C1C(=O)[C@]23[C@H](O)[C@H]1CC[C@H]2[C@@]12CO[C@@]3(O)C[C@@H]1C(C)(C)CC[C@@H]2O	> 25 µM	–	> 25 µM	11.5 µM	> 25 µM	–	–	23.4 µM	–	7.52 µM	–	17.9 µM	> 25 µM	–
CC1(C)Oc2ccc(Cl)cc2C12CC2	36.4 µM	–	28.4 µM	30.2 µM	31.3 µM	–	–	43.2 µM	–	32.9 µM	–	47.6 µM	29.5 µM	–
C=CCC1NCCC2=C1C(S(=O)(=O)c1ccc(C)cc1)c1ccccc12 (centres undefined)	38.4 µM	–	30.5 µM	17.6 µM	25.7 µM	–	–	24 µM	–	4.29 µM	–	25.5 µM	24.3 µM	–
CCOC(OCC)C(CCc1ccccc1)c1c(N)nc(N)[nH]c1=O (centres undefined)	> 100 µM	–	> 100 µM	> 100 µM	> 100 µM	–	–	> 100 µM	–	49.3 µM	–	> 100 µM	> 100 µM	–
Cc1nc2ccccc2c(=O)n1NC(=O)Cc1ccccc1	> 100 µM	–	> 100 µM	> 100 µM	> 100 µM	–	–	> 100 µM	–	> 100 µM	–	> 100 µM	> 100 µM	–
Cc1nnc(N)nc1/C=C\c1cccs1	> 100 µM	–	44.5 µM	40.8 µM	52.1 µM	–	–	29.4 µM	–	> 100 µM	–	> 100 µM	> 100 µM	–
O=C(c1ccc(Cl)cc1)N(C(=S)N1CCN(c2ccccn2)CC1)c1ccccc1	> 100 µM	> 100 µM	> 100 µM	> 100 µM	> 100 µM	> 100 µM	> 100 µM	> 100 µM	> 100 µM	> 100 µM	> 100 µM	–	–	–
O=C(c1ccc(Cl)cc1)N(Cc1cccnc1)C(=S)N(Cc1cccnc1)C(=O)c1ccc(Cl)cc1	> 100 µM	–	85.3 µM	> 100 µM	48.2 µM	–	–	> 100 µM	–	43.4 µM	–	59.3 µM	> 100 µM	–
Cc1ccc(NC(=O)c2cccc([N+](=O)[O-])c2O)c(C)c1	> 100 µM	> 100 µM	> 100 µM	–	–	> 100 µM	–	17.9 µM	> 100 µM	> 100 µM	> 100 µM	–	–	–
COCC(=O)[C@]1(O)Cc2c(O)c3c(c(O)c2[C@@H](OC2CC(N)C(O)C(C)O2)C1)C(=O)c1c(OC)cccc1C3=O (some centres undefined)	0.159 µM	30.6 µM	3.95 µM	0.267 µM	12.2 µM	5.15 µM	0.603 µM	0.335 µM	0.938 µM	1.63 µM	0.339 µM	2.97 µM	0.974 µM	–
CCCCCC(/C=C/[C@@H]1CC(=O)C[C@H]1O[Si](C)(C)C(C)(C)C)OCOCCOC (some centres undefined)	6.37 µM	–	18.3 µM	5.45 µM	14.3 µM	–	–	5.32 µM	–	17.8 µM	–	14.7 µM	32.8 µM	–
c1ccc([C@H]2CN3CCSC3=N2)cc1	> 100 µM	–	> 100 µM	> 100 µM	> 100 µM	–	–	> 100 µM	–	> 100 µM	–	> 100 µM	> 100 µM	–
Cc1cc(NC2=NCCO2)c2c(c1C)CCCC2	75.9 µM	–	> 100 µM	> 100 µM	43 µM	–	–	25.9 µM	–	46.6 µM	–	77.9 µM	> 100 µM	–
CC[C@@]1(O)C(=O)OCc2c1cc1n(c2=O)Cc2c-1nc1ccccc1c2/C=N\NC(=O)C(N)CS (some centres undefined)	1.04 µM	–	> 100 µM	10.2 µM	> 100 µM	–	–	> 100 µM	–	> 100 µM	–	> 100 µM	6.76 µM	–
COc1ccc2[nH]c(C(=O)N3CC(CCl)c4ccc([N+](=O)[O-])cc43)cc2c1 (centres undefined)	> 100 µM	–	> 100 µM	> 100 µM	> 100 µM	–	–	> 100 µM	–	> 100 µM	–	> 100 µM	> 100 µM	–
COc1cc2c3c(cc(Cl)nc3c1OC)C(O)(CC(C)=O)C(=O)N2 (centres undefined)	> 66.9 µM	–	36.2 µM	30.7 µM	30.9 µM	–	–	29.8 µM	–	> 100 µM	–	33 µM	> 53.6 µM	–
O=c1c2cc(-c3ccccc3)cnc2sn1-c1ccc([N+](=O)[O-])cc1	> 100 µM	–	> 100 µM	82.1 µM	> 100 µM	–	–	> 100 µM	–	> 100 µM	–	> 100 µM	> 100 µM	–
O=C1Nc2ccccc2NC1C1OC(c2ccccc2)=CC1=O (centres undefined)	> 100 µM	–	> 100 µM	> 100 µM	> 100 µM	–	–	> 100 µM	–	> 100 µM	–	> 100 µM	> 100 µM	–
CC(=O)c1ccc(NC(=O)/C(=N\NC(N)=O)C(C#N)CC(C)(C)C=O)cc1 (centres undefined)	> 100 µM	> 100 µM	> 100 µM	> 100 µM	–	> 100 µM	> 100 µM	–	> 100 µM	> 100 µM	> 100 µM	–	–	–
